Measurements published in PubChem BioAssay (NCI).
Several values for one entry are separate records, joined by “and”; a condition that tells them apart may be missing. Equal values may be shown once.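 96-well plates; 48 h exposure; 5 concentrations. Endpoints by linear interpolation between flanking doses. Not reached: highest tested concentration assigned. Abbreviation: GI50, concentration required for 50% inhibition of growth. TGI: concentration producing complete growth inhibition.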 Where a SMILES comes first, the peptide text is derived from it. [ ]: non-standard residue; d: D form. The star is where a group is joined. Bn2Val = CC(C)[C@@H](C(=O)*)N(Cc1ccccc1)Cc1ccccc1; NH(3,4-diMeO-benzyl) = COc1ccc(CN*)cc1OC; NMeV = CN[C@H](C(=O)O)C(C)C; dNMeA = CN[C@H](C)C(=O)O

What was measured:
Assay in all cases: NCI anticancer screen, dose series, 48 h
[1] = tested on: OVCAR-8 ovarian
[2] = tested on: OVCAR-5 ovarian
[3] = tested on: OVCAR-3 ovarian
[4] = tested on: U251 CNS
[5] = tested on: EKVX NSCLC
[6] = tested on: ACHN renal
[7] = tested on: MCF7 breast
[8] = tested on: SK-OV-3 ovarian
[9] = tested on: SNB-19 CNS
[10] = tested on: SNB-75 CNS

| SMILES | TGI [1] | TGI [2] | TGI [3] | TGI [4] | TGI [5] | TGI [6] | TGI [7] [µM] | TGI [8] | TGI [9] | TGI [10] | GI50 [1] [µM] | GI50 [2] [µM] | GI50 [10] [µM] | GI50 [3] [µM] | GI50 [4] [µM] | GI50 [5] [µM] | GI50 [6] [µM] | GI50 [7] [µM] | GI50 [8] [µM] | GI50 [9] [µM] |
| --- | --- | --- | --- | --- | --- | --- | --- | --- | --- | --- | --- | --- | --- | --- | --- | --- | --- | --- | --- | --- |
| CCCNC(=O)OCc1c(COC(=O)NCCC)c(-c2ccc(Cl)c(Cl)c2)n2c1CCC2 | 16.9 µM | 20.4 µM | 41.5 µM | 28.9 µM | 30.2 µM | 6.28 µM | 19.8 | 10.5 µM | 39.1 µM | – | – | – | – | – | – | – | – | – | – | – |
| O=C(O)/C=C/C(=O)Nc1ncn[nH]1 | > 100 µM | > 100 µM | > 100 µM | > 100 µM | > 100 µM | > 100 µM | > 100 | > 100 µM | > 100 µM | > 100 µM | – | – | – | – | – | – | – | – | – | – |
| N#Cc1nc(-c2ccc(F)cc2)oc1S(=O)(=O)N1CCOCC1 | 30.2 µM | 9.38 µM | 3.18 µM | 31.5 µM | 37 µM | 3.12 µM | 11.7 | 86.6 µM | 28 µM | 22 µM | 4.71 | 2.8 | 10.2 | 1.75 | 14.5 | 13.8 | 1.74 | 2.65 | 23.4 | 13.7 |
| Cc1c(Cl)cccc1Nc1ncccc1C(=O)O | > 100 µM | > 100 µM | > 100 µM | > 100 µM | > 100 µM | > 100 µM | > 100 | > 100 µM | > 100 µM | > 100 µM | > 100 | > 100 | > 100 | 39.8 | 63.4 | 34.1 | 58.5 | > 100 | > 100 | > 100 |
| COc1cc2c(c(O)c1C)C(=O)C(Cl)=CC2=O | 45 µM | 44.3 µM | 24.3 µM | 47.3 µM | 23.3 µM | 13.9 µM | 15.8 | > 65.6 µM | > 86.4 µM | 31.5 µM | – | – | – | – | – | – | – | – | – | – |
| Fc1ccc(-c2nn(-c3ccccc3)cc2-c2nc3ccccc3o2)cc1 | > 100 µM | 77.2 µM | 48.7 µM | 16.5 µM | 90.6 µM | > 100 µM | > 100 | > 100 µM | 53.1 µM | 33.4 µM | 3.61 | 20.1 | 9.89 | 2.87 | 1.93 | 5.29 | 4.1 | 0.539 | 8.46 | 4.82 |
| CC1=C2[C@@H](CC1)[C@]1(C)O[C@@](C(C)C)(C[C@H]1OC(=O)[C@H](C)O)[C@H]2OC(=O)/C=C/c1ccccc1 | 16.6 µM | 36.2 µM | 26.1 µM | 28 µM | 21.7 µM | 13 µM | 23.5 | 38 µM | 37.2 µM | 51.2 µM | 0.451 | 17.7 | 19.2 | 12.5 | 14.2 | 6.19 | 0.145 | 8.15 | 15.3 | 17.1 |
| O=C(Cc1ccc(/C=C/C(=O)c2ncc[nH]2)cc1)Nc1ccc(Cl)cc1 | 16 µM | 7.78 µM | 4.29 µM | 3.49 µM | 20.2 µM | 7.66 µM | 4.73 | > 25 µM | 6.73 µM | > 25 µM | 3.65 | 3.3 | 3.63 | 1.14 | 1.02 | 5.68 | 4.04 | 0.741 | 9.74 | 2.32 |
| COc1ccc(CNC(=O)[C@@H](C)N(C)C(=O)[C@@H]2CCCN2C(=O)[C@H](C(C)C)N(C)C(=O)[C@@H](NC(=O)[C@H](C(C)C)N(Cc2ccccc2)Cc2ccccc2)C(C)C)cc1OC (Bn2Val-V[NMeV]P[dNMeA]-{NH(3,4-diMeO-benzyl)}) | 50 µM and > 100 µM | 16.6 µM and 9.77 µM | 14.6 µM and 24.7 µM | 22.1 µM and 20 µM | 50 µM and 49.1 µM | 14.9 µM and 23.9 µM | 25.3 | 36.3 µM and 96.7 µM | 23.9 µM and > 100 µM | 16.6 µM and 15.9 µM | 16.3 | 2.79 | 3.54 | 10 | – | 10.4 | 8.21 | – | 23.6 | > 100 |
| S=C1NCCN1C1=Nc2ccccc2CO1 | > 100 µM | > 100 µM | > 100 µM | > 100 µM | > 100 µM | > 100 µM | > 100 | > 100 µM | > 100 µM | > 100 µM | > 100 | > 100 | 22.5 | > 100 | > 100 | 93.6 | > 100 | > 100 | > 100 | > 100 |
| C[C@@H]1Cc2c([nH]c3ccccc23)[C@@H](c2c(F)cc(/C=C/C(=O)O)cc2F)N1CC(C)(C)F | 38.4 µM | 46.8 µM | 29.1 µM | 25 µM | 39.2 µM | 28 µM | 25.6 | 36.7 µM | 32.3 µM | 28.6 µM | 11.9 | 22.2 | 12.9 | 13.8 | 10.5 | 12.7 | 12.7 | – | 18.6 | 13.7 |
| Cn1c(-c2nonc2N)nc2cnccc21 | > 25 µM | > 25 µM | > 25 µM | > 25 µM | > 25 µM | > 25 µM | > 25 | > 25 µM | > 25 µM | > 24 µM | > 25 | > 25 | > 12.8 | > 25 | > 25 | 16.5 | > 25 | > 25 | > 25 | > 25 |
| O=C1CCC(NC(=O)c2ccccc2)C(=O)N1 (stereo unspecified) | > 100 µM | > 100 µM | > 100 µM | > 100 µM | > 100 µM | > 100 µM | > 100 | > 100 µM | > 100 µM | > 100 µM | – | – | – | – | – | – | – | – | – | – |
| CC1(C)N=C(N)N=C(N)N1c1ccc(CCCCc2ccc(S(=O)(=O)F)cc2Cl)c(Cl)c1 | 261 µM | 198 µM | 87 µM | 53.2 µM | 161 µM | 142 µM | 28.7 | 351 µM | 125 µM | 54.7 µM | – | – | – | – | – | – | – | – | – | – |
